According to patent US20060047261A1, “Intra-arterial catheter for drug delivery” (priority 2004, published 2006):

Columns and labels:
[1] = intracarotid; cited from earlier work
New Zealand rabbits = assay: Intracarotid propofol (0.33% and 1%) before, during and after flow arrest: duration of electrocerebral silence; type: in vivo, rabbit
Procedure: The study was conducted on eight New Zealand rabbits that were subjected to six drug challenges. […] The flow arrest was produced by intravenous injection of esmolol (10 mg) and adenosine (30 mg).

[2] = co-administration of intracarotid verapamil; n=14, P=0.04

CCCC(C)C1(CC)C(=O)NC(=S)NC1=O (stereo not drawn) [pentothal]
loading dose of 1% pentothal [1]: about 0.3±0.1 ml

CC(C)c1cccc(C(C)C)c1O [propofol]
time to complete recovery of EEG activity and systemic changes (blood pressure) (rabbits; after last intracarotid injection): ≤ 10 min | EEG silence (rabbits; intracarotid, volume of 0.4 ml with 0.5% propofol): produced EEG silence in all cases | increase of the duration of EEG silence by changing concentration (New Zealand rabbits; 0.33% vs 1% (1 or 3 mg) intracarotid, P=0.02, NS on post-hoc testing, n=8): 2-4 folds | increase of the duration of EEG silence by flow arrest (New Zealand rabbits; intracarotid 1 or 3 mg during esmolol/adenosine flow arrest, n=8, P<0.0001): 15-20 folds

COc1ccc(CCN(C)CCCC(C#N)(c2ccc(OC)c(OC)c2)C(C)C)cc1OC (stereo not drawn) [verapamil]
doses of intracarotid propofol required to produce 10 minutes of EEG silence [2]: significantly increased
